Source: the supplement of paper PMC10307832

Assays:
Test in all cases: relative viability (nuclei count vs DMSO), 5 days (fraction); higher = more cells survive
NCI-H1666 = system: NCI-H1666
Outline: (§1)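 Each reported value is a median over duplicate plates. It expresses relative viability: treated-well nuclei count divided by vehicle-well nuclei count. Lung cancer cell lines in 1536-well plates were dosed by pin tool a day after seeding, alone with one drug or with a fixed anchor-drug dose plus five library-drug doses (not always all listed) in √10 steps, and nuclei were counted after 5 days.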

EPLC-272H = system: EPLC-272H
Outline: as §1

NCI-H647 = system: NCI-H647
Outline: as §1

PC-14 = system: PC-14
Outline: as §1

NCI-H1915 = system: NCI-H1915
Outline: as §1

NCI-H661 = system: NCI-H661
Outline: as §1

H3255 = system: H3255
Outline: as §1

ChaGo-K-1 = system: ChaGo-K-1
Outline: as §1

NCI-H23 = system: NCI-H23
Outline: as §1

COR-L 105 = system: COR-L 105
Outline: as §1

NCI-H2347 = system: NCI-H2347
Outline: as §1

NCI-H2405 = system: NCI-H2405
Outline: as §1

LCLC-97TM1 = system: LCLC-97TM1
Outline: as §1

201T = system: 201T
Outline: as §1

HCC-827 = system: HCC-827
Outline: as §1

RERF-LC-KJ = system: RERF-LC-KJ
Outline: as §1

NCI-H650 = system: NCI-H650
Outline: as §1

NCI-H520 = system: NCI-H520
Outline: as §1

HCC-78 = system: HCC-78
Outline: as §1

NCI-H2126 = system: NCI-H2126
Outline: as §1

LC-2-ad = system: LC-2-ad
Outline: as §1

NCI-H2087 = system: NCI-H2087
Outline: as §1

Structure (SMILES): CCN(CC)CCCCNc1ncc2cc(-c3cc(OC)cc(OC)c3)c(NC(=O)NC(C)(C)C)nc2n1 + COc1cc2c(Oc3ccc(NC(=O)C4(C(=O)Nc5ccc(F)cc5)CC4)cc3F)ccnc2cc1OCCCN1CCOCC1 [Foretinib] (partner 0.25 µM)
- relative viability (NCI-H1666; first compound 0.01 µM): 0.936
- relative viability (NCI-H1666; first compound 0.03162 µM): 0.979
- relative viability (NCI-H1666; first compound 0.1 µM): 0.977
- relative viability (NCI-H1666; first compound 0.3162 µM): 0.892
- relative viability (NCI-H1666; first compound 1 µM): 0.919
- relative viability (EPLC-272H; first compound 0.01 µM): 0.63
- relative viability (EPLC-272H; first compound 0.03162 µM): 0.877
- relative viability (EPLC-272H; first compound 0.1 µM): 0.693
- relative viability (EPLC-272H; first compound 0.3162 µM): 0.741
- relative viability (EPLC-272H; first compound 1 µM): 0.644
- relative viability (NCI-H647; first compound 0.01 µM): 1.15
- relative viability (NCI-H647; first compound 0.03162 µM): 1.39
- relative viability (NCI-H647; first compound 0.1 µM): 1.43
- relative viability (NCI-H647; first compound 0.3162 µM): 1.55
- relative viability (NCI-H647; first compound 1 µM): 1.08
- relative viability (PC-14; first compound 0.01 µM): 0.976
- relative viability (PC-14; first compound 0.03162 µM): 0.976
- relative viability (PC-14; first compound 0.1 µM): 1.08
- relative viability (PC-14; first compound 0.3162 µM): 1.07
- relative viability (PC-14; first compound 1 µM): 0.885
- relative viability (NCI-H1915; first compound 0.01 µM): 1.15
- relative viability (NCI-H1915; first compound 0.03162 µM): 1.24
- relative viability (NCI-H1915; first compound 0.1 µM): 1.13
- relative viability (NCI-H1915; first compound 0.3162 µM): 1.27
- relative viability (NCI-H1915; first compound 1 µM): 1.15
- relative viability (NCI-H661; first compound 0.01 µM): 1.07
- relative viability (NCI-H661; first compound 0.03162 µM): 1.04
- relative viability (NCI-H661; first compound 0.1 µM): 1.03
- relative viability (NCI-H661; first compound 0.3162 µM): 1.07
- relative viability (NCI-H661; first compound 1 µM): 1.02
- relative viability (H3255; first compound 0.01 µM): 0.898
- relative viability (H3255; first compound 0.03162 µM): 0.915
- relative viability (H3255; first compound 0.1 µM): 1.04
- relative viability (H3255; first compound 0.3162 µM): 0.943
- relative viability (H3255; first compound 1 µM): 0.85
- relative viability (ChaGo-K-1; first compound 0.01 µM): 0.903
- relative viability (ChaGo-K-1; first compound 0.03162 µM): 1.05
- relative viability (ChaGo-K-1; first compound 0.1 µM): 0.936
- relative viability (ChaGo-K-1; first compound 0.3162 µM): 0.956
- relative viability (ChaGo-K-1; first compound 1 µM): 0.757
- relative viability (NCI-H23; first compound 0.01 µM): 1.01
- relative viability (NCI-H23; first compound 0.03162 µM): 0.831
- relative viability (NCI-H23; first compound 0.1 µM): 1.23
- relative viability (NCI-H23; first compound 0.3162 µM): 0.984
- relative viability (NCI-H23; first compound 1 µM): 0.955
- relative viability (COR-L 105; first compound 0.01 µM): 1.27
- relative viability (COR-L 105; first compound 0.03162 µM): 0.994
- relative viability (COR-L 105; first compound 0.1 µM): 1.23
- relative viability (COR-L 105; first compound 0.3162 µM): 0.909
- relative viability (COR-L 105; first compound 1 µM): 1.15
- relative viability (NCI-H2347; first compound 0.01 µM): 0.744
- relative viability (NCI-H2347; first compound 0.03162 µM): 0.85
- relative viability (NCI-H2347; first compound 0.1 µM): 1.4
- relative viability (NCI-H2347; first compound 0.3162 µM): 1.12
- relative viability (NCI-H2347; first compound 1 µM): 0.766
- relative viability (NCI-H2405; first compound 0.01 µM): 1.05
- relative viability (NCI-H2405; first compound 0.03162 µM): 1.05
- relative viability (NCI-H2405; first compound 0.1 µM): 1.03
- relative viability (NCI-H2405; first compound 0.3162 µM): 1.07
- relative viability (NCI-H2405; first compound 1 µM): 1.04
- relative viability (LCLC-97TM1; first compound 0.01 µM): 1.1
- relative viability (LCLC-97TM1; first compound 0.03162 µM): 0.94
- relative viability (LCLC-97TM1; first compound 0.1 µM): 1.03
- relative viability (LCLC-97TM1; first compound 0.3162 µM): 1.06
- relative viability (LCLC-97TM1; first compound 1 µM): 0.95
- relative viability (201T; first compound 0.03162 µM): 1.06
- relative viability (201T; first compound 0.1 µM): 1.2
- relative viability (201T; first compound 0.3162 µM): 1.05
- relative viability (201T; first compound 1 µM): 1.03
- relative viability (HCC-827; first compound 0.01 µM): 1.05
- relative viability (HCC-827; first compound 0.03162 µM): 1.01
- relative viability (HCC-827; first compound 0.1 µM): 1.19
- relative viability (HCC-827; first compound 0.3162 µM): 1.17
- relative viability (HCC-827; first compound 1 µM): 1.05
- relative viability (RERF-LC-KJ; first compound 0.01 µM): 0.893
- relative viability (RERF-LC-KJ; first compound 0.03162 µM): 0.901
- relative viability (RERF-LC-KJ; first compound 0.1 µM): 0.871
- relative viability (RERF-LC-KJ; first compound 0.3162 µM): 0.872
- relative viability (RERF-LC-KJ; first compound 1 µM): 0.941
- relative viability (NCI-H650; first compound 0.01 µM): 0.968
- relative viability (NCI-H650; first compound 0.03162 µM): 0.992
- relative viability (NCI-H650; first compound 0.1 µM): 1.06
- relative viability (NCI-H650; first compound 0.3162 µM): 1.09
- relative viability (NCI-H650; first compound 1 µM): 1.13
- relative viability (NCI-H520; first compound 0.01 µM): 0.677
- relative viability (NCI-H520; first compound 0.03162 µM): 0.834
- relative viability (NCI-H520; first compound 0.1 µM): 1.15
- relative viability (NCI-H520; first compound 0.3162 µM): 0.543
- relative viability (NCI-H520; first compound 1 µM): 0.326
- relative viability (HCC-78; first compound 0.01 µM): 0.583
- relative viability (HCC-78; first compound 0.03162 µM): 0.53
- relative viability (HCC-78; first compound 0.1 µM): 0.586
- relative viability (HCC-78; first compound 0.3162 µM): 0.55
- relative viability (HCC-78; first compound 1 µM): 0.56
- relative viability (NCI-H2126; first compound 0.01 µM): 1.37
- relative viability (NCI-H2126; first compound 0.03162 µM): 1.3
- relative viability (NCI-H2126; first compound 0.1 µM): 1.14
- relative viability (NCI-H2126; first compound 0.3162 µM): 1.22
- relative viability (NCI-H2126; first compound 1 µM): 1.11
- relative viability (LC-2-ad; first compound 0.01 µM): 1.09
- relative viability (LC-2-ad; first compound 0.03162 µM): 0.998
- relative viability (LC-2-ad; first compound 0.1 µM): 1.11
- relative viability (LC-2-ad; first compound 0.3162 µM): 0.951
- relative viability (LC-2-ad; first compound 1 µM): 0.966
- relative viability (NCI-H2087; first compound 0.01 µM): 1.25
- relative viability (NCI-H2087; first compound 0.03162 µM): 1.13
- relative viability (NCI-H2087; first compound 0.1 µM): 1.45
- relative viability (NCI-H2087; first compound 0.3162 µM): 1.16
- relative viability (NCI-H2087; first compound 1 µM): 1.21
